# Laboratory results from US12599580B2, “Composition comprising a lipid compound, a triglyceride, and a surfactant, and methods of using the same” (BASF AS, priority 2013, dated 2026).
# Where a name gives a salt, the structure may show the parent alone. Read-outs that look alike come from different tables or passages of the source.
# Legend:
# [1] = Solubility of the API in water; type: physicochemical
# Excerpt: (§1) Thus, low bioavailability is expected.
# [2] = test system: APOE*3Leiden.CETP transgenic mouse model; settings: cited from earlier work
# [3] = Phase 1 study, pharmacokinetics in male and female, 300 mg b.i.d for 14 days; type: in vivo, healthy subjects (humans); settings: for AUC / Cmax: human, plasma, oral, composition No. 27; for AUC: read-out: Geometric mean AUC0-τ; for Cmax: read-out: Geometric mean Cmax
# Protocol: Phase 1 study of 2-((5Z,8Z,11Z,14Z,17Z)-icosa-5,8,11,14,17-pentaenyloxy)butanoic acid (API) assessing the safety, tolerability, PK, and pharmacodynamics (PD) has been performed in healthy individuals. Each dose group consisted of 6 healthy subjects. An API dose of 300 mg b.i.d was given orally to males and females for 14 consecutive days. The formulation given included Tween 20 (40 wt %), Miglyol 812N (30 wt %) and API (30 wt %). The API was mixed with other components in the formulation as described under “General procedures.” The formulation of this example corresponds to composition No. 27 of Example 1.
# [4] = Phase 1 study, food effect (fed and fasted state), single oral dose; type: in vivo, healthy subjects (humans); settings: human, plasma; for AUC(0-t): composition No. 27 in capsules, healthy male subjects, read-out: AUC0-24 h
# Excerpt: Phase 1 study of 2-((5Z,8Z,11Z,14Z,17Z)-icosa-5,8,11,14,17-pentaenyloxy)butanoic acid (API) assessing the safety, tolerability, PK, and pharmacodynamics (PD) have been performed in healthy individuals. Each group consisted of 6 healthy subjects. The formulation according to the present disclosure included Tween 20 (40 wt %), Miglyol 812N (30 wt %) and API (30 wt %). The API was mixed with other components of the composition as described under “General procedures.” The formulation of this example corresponds to composition No. 27 of Example 1. The premix was filled into capsules and administered orally to humans.
# [5] = Phase 1 study, individual variability in pharmacokinetics at 600 mg; type: in vivo, healthy subjects (humans); settings: single oral dose 600 mg, composition No. 27, healthy male subjects
# Protocol: Phase 1 study of 2-((5Z,8Z,11Z,14Z,17Z)-icosa-5,8,11,14,17-pentaenyloxy)butanoic acid (API) assessing the safety, tolerability, PK, and pharmacodynamics (PD) has been performed in healthy individuals. Each dose group consisted of 6 healthy subjects. The initial dose API received was 5 mg, and the maximum dose was 600 mg. Data presented here are with an API dose of 600 mg. This formulation included Tween 20 (40 wt %), Miglyol 812N (30 wt %) and API (30 wt %). The API was mixed with other components of the composition as described under “General procedures.” The formulation for this example corresponds to composition No. 27 of Example 1. A minimum of 10 days intervene before each dose escalation. Escalating doses were administered to the groups sequentially.
# [6] = Phase 1 study, escalating single oral doses 5 to 600 mg; type: in vivo, healthy subjects (humans); settings: single oral doses between 5 to 600 mg, healthy subjects
# Protocol: Phase 1 study of 2-((5Z,8Z,11Z,14Z,17Z)-icosa-5,8,11,14,17-pentaenyloxy)butanoic acid (API) assessing the safety, tolerability, PK, and pharmacodynamics (PD) has been performed in healthy individuals. Each dose group consisted of 6 healthy subjects. The initial dose of API received was 5 mg, and the maximum dose of API was 600 mg. The API was mixed with other components of the formulations according to Table 20, the premix was filled into capsules and administered orally to humans.
# A minimum of 10 days intervene before each dose escalation. Escalating doses are administered to the groups sequentially.
# [7] = Permeability of the API; type: in vitro ADME
# Excerpt: as §1
# [8] = Solubility of salts in surfactants and co-solvents; type: physicochemical
# Excerpt: Salts prepared from monovalent counter ions are all highly soluble in surfactants according to the present disclosure and excellent pre-concentrates and SMEDDS can be prepared.
# [9] = male, po, 100 mg, Fasted, single oral dose 100 mg API
# [10] = male, po, 100 mg, Fed, single oral dose 100 mg API
smiles,measurement,setting,value
"CC/C=C\C/C=C\C/C=C\C/C=C\C/C=C\CCCCOC(CC)C(=O)O (stereo not shown) [API, 2-((5Z,8Z,11Z,14Z,17Z)-icosa-5,8,11,14,17-pentaenyloxy)butanoic acid]",solubility in water,[1],low solubility in water
same,HDL cholesterol as compared to a control,[2],increased
same,atherosclerotic lesion areas in the aorta as compared to a control,[2],decreased
same,total cholesterol as compared to a control,[2],decreased
same,"gender differences in pharmacokinetics (Cmax, AUC0-24)","[3]; 300 mg b.i.d, males and females, 14 consecutive days",no gender differences in pharmacokinetics
same,AUC Ratio E/M,"[3]; Day 14, 300 mg b.i.d",0.937
same,Cmax Ratio E/M,"[3]; Day 14, 300 mg b.i.d",1.12
same,AUC,"[3]; Female, Day 14, 300 mg b.i.d",75800 ng·h/mL
same,Cmax,"[3]; Female, Day 14, 300 mg b.i.d",15800 ng/mL
same,AUC,"[3]; Male, Day 14, 300 mg b.i.d",80900 ng·h/mL
same,Cmax,"[3]; Male, Day 14, 300 mg b.i.d",14100 ng/mL
same,Tmax,"[4]; both sexes, oral, healthy male and female subjects receiving single doses, read-out: mean Tmax",1 to 2 h
same,Cmax,[4]; [9],2800 ng/mL
same,half-life,[4]; [9],6.36 ± 3.13 h
same,AUC(0-t),[4]; [9],14000 ng·h/mL
same,Tmax,"[4]; male, po, 100 mg, Fasted, single oral dose 100 mg API, read-out: Tmax",1.4 h
same,Cmax,[4]; [10],2700 ng/mL
same,half-life,[4]; [10],6.29 ± 2.13 h
same,AUC(0-t),[4]; [10],15000 ng·h/mL
same,Tmax,"[4]; male, po, 100 mg, Fed, single oral dose 100 mg API, read-out: Tmax",3.6 h
same,% CV (relative variability) of AUC0-24,[5],~15%
same,% CV (relative variability) of Cmax,[5],approximately 10%
same,increase of exposure (Cmax and AUC0-24) with dose,[6],higher than dose-proportional manner
same,permeability,[7],low permeability
"CC/C=C\C/C=C\C/C=C\C/C=C\C/C=C\CCCCOC(CC)C(=O)O (stereo not shown) [magnesium salt, magnesium 2-((5Z,8Z,11Z,14Z,17Z)-icosa-5,8,11,14,17-pentaenyloxy)butanoate]",solubility in surfactants and co-solvents,[8],medium solubility
